# From patent US20050222200A1, “AMIDE DERIVATIVES AS ION CHANNEL LIGANDS AND PHARMACEUTICAL COMPOSITIONS AND METHODS OF USING THE SAME” (Renovis, Inc., priority 2003, published 2005)
# Target: VR1 (Rattus norvegicus, UniProt O35433)
# Assay: Calcium imaging assay: inhibition of capsaicin induced calcium influx in DRG neurons (Fura2, microscope)
# Format: cell-based
# Design: endogenous in cells; host or cells: DRG neurons
# Details: capsaicin stimulation; class symbols per legend
# Method: VR1 protein is a heat-gated cation channel that […] resulting in neuronal membrane depolarization and elevated intracellular calcium levels. Therefore the functional activity of compounds at the VR1 receptor may be determined by measuring changes in intracellular calcium levels in neurons such as the dorsal root ganglion.
# DRG neurons were grown on PDL coated 96-well black-walled plates, in the presence of DMEM medium containing 5% Penstrep, 5% Glutamax, 200 μg/ml hygromycin, 5 μg/ml blasticide and 10% heat inactivated FBS. Prior to assay, cells were loaded with 5 μg/ml Fura2 in normal saline solution at 37° C for 40 minutes. Cells were then washed with normal saline to remove dye before commencement of the experiment.
# The plated neurons were transferred into a chamber on the stage of a Nikon eclipse TE300 microscope after which neurons were allowed to attain a stable fluorescence for about 10 minutes before beginning the experiment. The assay consists of two stages, a pretreatment phase followed by a treatment phase. First, a solution of the test compound was added from a multivalve perfusion system to the cells for 1 minute (pretreatment). Immediately following, capsaicin (250 nM) was added in the presence of the test compound (treatment) for a specific period between 20 and 60 seconds.
# Fura2 was excited at […] to indicate relative calcium ion concentration. Changes in wavelength measurements were made throughout the course of the experiment. The fluorescence ratio was calculated by dividing fluorescence measured at 340 nm by that at 380 nM. Data was collected using Intelligent Imaging’s Slidebook software. All compounds that inhibited capsaicin induced calcium influx greater than 75% were considered positives.
# Fluorescence reflecting calcium ion influx is reduced.
# Chain of VR1 (O35433 whole entry): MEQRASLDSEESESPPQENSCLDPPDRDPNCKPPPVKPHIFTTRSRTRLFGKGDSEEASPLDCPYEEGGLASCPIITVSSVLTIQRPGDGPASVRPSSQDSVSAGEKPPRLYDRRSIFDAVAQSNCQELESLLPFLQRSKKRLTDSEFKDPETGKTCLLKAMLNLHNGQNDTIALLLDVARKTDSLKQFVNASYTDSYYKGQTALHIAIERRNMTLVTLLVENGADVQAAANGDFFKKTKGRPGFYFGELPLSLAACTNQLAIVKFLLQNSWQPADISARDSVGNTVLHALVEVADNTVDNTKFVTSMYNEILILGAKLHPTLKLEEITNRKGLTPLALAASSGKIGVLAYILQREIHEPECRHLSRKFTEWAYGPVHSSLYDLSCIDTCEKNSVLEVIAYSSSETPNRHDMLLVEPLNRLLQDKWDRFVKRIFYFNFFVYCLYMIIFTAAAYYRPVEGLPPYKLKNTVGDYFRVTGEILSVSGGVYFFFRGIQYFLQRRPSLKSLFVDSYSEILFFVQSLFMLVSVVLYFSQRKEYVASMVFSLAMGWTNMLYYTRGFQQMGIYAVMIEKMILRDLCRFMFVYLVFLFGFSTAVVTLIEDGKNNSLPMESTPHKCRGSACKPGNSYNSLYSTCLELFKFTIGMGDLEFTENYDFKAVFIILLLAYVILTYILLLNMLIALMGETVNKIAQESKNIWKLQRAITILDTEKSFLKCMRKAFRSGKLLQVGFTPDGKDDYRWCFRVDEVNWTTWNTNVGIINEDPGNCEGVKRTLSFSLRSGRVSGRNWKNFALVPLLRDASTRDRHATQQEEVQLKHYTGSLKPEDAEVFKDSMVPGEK
row,SMILES,inhibition of calcium ion influx induced by capsaicin stimulation
1,CCN(CC)c1ccc(NC(=O)c2ccc(C#CC(C)(C)C)cc2)cc1 [Compound 380],++ (compound exhibited 25-50% inhibition of calcium ion influx induced by capsaicin stimulation)
2,CC(C)(C)C#Cc1ccc(C(=O)Nc2ccc(Br)cn2)cc1 [Compound 382],++ (compound exhibited 25-50% inhibition of calcium ion influx induced by capsaicin stimulation)
3,CC(C)(C)C#Cc1ccc(C(=O)Nc2ccc(C(F)(F)F)cn2)cc1 [Compound 383],+++ (compound exhibited 50-75% inhibition of calcium ion influx induced by capsaicin stimulation)
4,CC(C)(C)C#Cc1ccc(C(=O)Nc2ccc(Cl)nc2)cc1 [Compound 384],++++ (compound exhibited 75% or greater inhibition of calcium ion influx induced by capsaicin stimulation)
5,COc1ccc(NC(=O)c2ccc(C#CC(C)(C)C)cc2)cn1 [Compound 385],++++ (compound exhibited 75% or greater inhibition of calcium ion influx induced by capsaicin stimulation)
6,Cn1ccc2cc(NC(=O)c3ccc(C#CC(C)(C)C)cc3)ccc21 [Compound 387],++++ (compound exhibited 75% or greater inhibition of calcium ion influx induced by capsaicin stimulation)
7,COc1cccc(NC(=O)c2ccc(/C=C/C(F)(F)F)cc2)c1 [Compound 389],++++ (compound exhibited 75% or greater inhibition of calcium ion influx induced by capsaicin stimulation)
8,O=C(Nc1ccc(Cl)cc1)c1ccc(/C=C/C(F)(F)F)cc1 [Compound 390],++ (compound exhibited 25-50% inhibition of calcium ion influx induced by capsaicin stimulation)
9,COc1ccc(NC(=O)c2ccc(/C=C/C(F)(F)F)cc2)cc1Cl [Compound 391],+ (compound exhibited 0-25% inhibition of calcium ion influx induced by capsaicin stimulation)
10,O=C(Nc1ccc(C(F)(F)F)cc1)c1ccc(/C=C/C(F)(F)F)cc1 [Compound 392],+ (compound exhibited 0-25% inhibition of calcium ion influx induced by capsaicin stimulation)
11,CC(C)c1ccc(NC(=O)c2ccc(/C=C/C(F)(F)F)cc2)cc1 [Compound 394],++ (compound exhibited 25-50% inhibition of calcium ion influx induced by capsaicin stimulation)
12,CCCCc1ccc(NC(=O)c2ccc(/C=C/C(F)(F)F)cc2)cc1 [Compound 395],+ (compound exhibited 0-25% inhibition of calcium ion influx induced by capsaicin stimulation)
13,O=C(Nc1ccc2c(c1)OCCO2)c1ccc(/C=C/C(F)(F)F)cc1 [Compound 397],+++ (compound exhibited 50-75% inhibition of calcium ion influx induced by capsaicin stimulation)
14,O=C(Nc1cccc(C(F)(F)F)c1)c1ccc(/C=C/C(F)(F)F)cc1 [Compound 398],++++ (compound exhibited 75% or greater inhibition of calcium ion influx induced by capsaicin stimulation)
15,O=C(Nc1ccc(OC(F)(F)F)cc1)c1ccc(/C=C/C(F)(F)F)cc1 [Compound 399],++++ (compound exhibited 75% or greater inhibition of calcium ion influx induced by capsaicin stimulation)
16,COc1ccc(NC(=O)c2ccc(/C=C/C(F)(F)F)cc2)cn1 [Compound 406],++ (compound exhibited 25-50% inhibition of calcium ion influx induced by capsaicin stimulation)
17,CC(C)(C)C#Cc1ccc(C(=O)Nc2cccc(S(C)(=O)=O)c2)cn1 [Compound 411],++++ (compound exhibited 75% or greater inhibition of calcium ion influx induced by capsaicin stimulation)
18,CC(C)(C)C#Cc1ccc(C(=O)Nc2cccc(S(C)(=O)=O)c2)cc1 [Compound 412],++++ (compound exhibited 75% or greater inhibition of calcium ion influx induced by capsaicin stimulation)
19,CCN(CC)CCOC(=O)c1ccc(NC(=O)c2ccc(C#CC(C)(C)C)nc2)cc1 [Compound 413],+ (compound exhibited 0-25% inhibition of calcium ion influx induced by capsaicin stimulation)
20,COc1cccc(NC(=O)c2ccc(C#CC(C)(C)C)nc2)c1 [Compound 414],++++ (compound exhibited 75% or greater inhibition of calcium ion influx induced by capsaicin stimulation)

row,SMILES,inhibition of calcium ion influx induced by capsaicin stimulation
1,COc1ccc(NC(=O)c2ccc(C#CC(C)(C)C)nc2)cc1Cl [Compound 416],++ (compound exhibited 25-50% inhibition of calcium ion influx induced by capsaicin stimulation)
2,CC(C)(C)C#Cc1ccc(C(=O)Nc2ccc(C(F)(F)F)cc2)cn1 [Compound 417],++++ (compound exhibited 75% or greater inhibition of calcium ion influx induced by capsaicin stimulation)
3,CC(C)(C)C#Cc1ccc(C(=O)Nc2ccc(Cl)c(C(F)(F)F)c2)cn1 [Compound 418],++++ (compound exhibited 75% or greater inhibition of calcium ion influx induced by capsaicin stimulation)
4,CC(C)(C)C#Cc1ccc(C(=O)Nc2ccc(C(C)(C)C)cc2)cn1 [Compound 419],++++ (compound exhibited 75% or greater inhibition of calcium ion influx induced by capsaicin stimulation)
5,CC(C)c1ccc(NC(=O)c2ccc(C#CC(C)(C)C)nc2)cc1 [Compound 420],+++ (compound exhibited 50-75% inhibition of calcium ion influx induced by capsaicin stimulation)
6,CCCCc1ccc(NC(=O)c2ccc(C#CC(C)(C)C)nc2)cc1 [Compound 421],++ (compound exhibited 25-50% inhibition of calcium ion influx induced by capsaicin stimulation)
7,COc1cc(NC(=O)c2ccc(C#CC(C)(C)C)nc2)cc(C(F)(F)F)c1 [Compound 422],++++ (compound exhibited 75% or greater inhibition of calcium ion influx induced by capsaicin stimulation)
8,CC(C)(C)C#Cc1ccc(C(=O)Nc2ccc3c(c2)OCCO3)cn1 [Compound 423],++++ (compound exhibited 75% or greater inhibition of calcium ion influx induced by capsaicin stimulation)
9,CC(C)(C)C#Cc1ccc(C(=O)Nc2cccc(C(F)(F)F)c2)cn1 [Compound 424],+++ (compound exhibited 50-75% inhibition of calcium ion influx induced by capsaicin stimulation)
10,CC(C)(C)C#Cc1ccc(C(=O)Nc2ccc(OC(F)(F)F)cc2)cn1 [Compound 425],+ (compound exhibited 0-25% inhibition of calcium ion influx induced by capsaicin stimulation)
11,CC(C)(C)C#Cc1ccc(C(=O)Nc2ccc(S(C)(=O)=O)cc2)cn1 [Compound 427],++ (compound exhibited 25-50% inhibition of calcium ion influx induced by capsaicin stimulation)
12,CC(C)(C)C#Cc1ccc(C(=O)Nc2cccc3cnccc23)cn1 [Compound 428],++++ (compound exhibited 75% or greater inhibition of calcium ion influx induced by capsaicin stimulation)
13,CC(C)(C)C#Cc1ccc(C(=O)Nc2cnc3ccccc3c2)cn1 [Compound 429],++++ (compound exhibited 75% or greater inhibition of calcium ion influx induced by capsaicin stimulation)
14,CCN(CC)c1ccc(NC(=O)c2ccc(C#CC(C)(C)C)nc2)cc1 [Compound 430],+ (compound exhibited 0-25% inhibition of calcium ion influx induced by capsaicin stimulation)
15,Cc1ccc(NC(=O)c2ccc(C#CC(C)(C)C)nc2)nc1 [Compound 432],+ (compound exhibited 0-25% inhibition of calcium ion influx induced by capsaicin stimulation)
16,CC(C)(C)C#Cc1ccc(C(=O)Nc2ccc(C(F)(F)F)cn2)cn1 [Compound 433],++ (compound exhibited 25-50% inhibition of calcium ion influx induced by capsaicin stimulation)
17,CC(C)(C)C#Cc1ccc(C(=O)Nc2ccc(Cl)nc2)cn1 [Compound 434],+ (compound exhibited 0-25% inhibition of calcium ion influx induced by capsaicin stimulation)
18,COc1ccc(NC(=O)c2ccc(C#CC(C)(C)C)nc2)cn1 [Compound 435],+ (compound exhibited 0-25% inhibition of calcium ion influx induced by capsaicin stimulation)
19,Cn1ccc2cc(NC(=O)c3ccc(C#CC(C)(C)C)nc3)ccc21 [Compound 437],++++ (compound exhibited 75% or greater inhibition of calcium ion influx induced by capsaicin stimulation)
20,CC(C)(C)C#Cc1ccc(C(=O)Nc2ccc3c(c2)OCO3)cn1 [Compound 438],++++ (compound exhibited 75% or greater inhibition of calcium ion influx induced by capsaicin stimulation)
